Patent US12281102B2, “Inhibitors of APOL1 and methods of using same” (Vertex Pharmaceuticals Incorporated, priority 2020, dated 2025)
pIC50: −log10 of the molar value.

Biological target: T1, G1 APOL1 (Homo sapiens, UniProt O14791, I384M/S342G)
T1 construct: expressed in transfected cells
T1 sequence (O14791 28-398 S342G/I384M): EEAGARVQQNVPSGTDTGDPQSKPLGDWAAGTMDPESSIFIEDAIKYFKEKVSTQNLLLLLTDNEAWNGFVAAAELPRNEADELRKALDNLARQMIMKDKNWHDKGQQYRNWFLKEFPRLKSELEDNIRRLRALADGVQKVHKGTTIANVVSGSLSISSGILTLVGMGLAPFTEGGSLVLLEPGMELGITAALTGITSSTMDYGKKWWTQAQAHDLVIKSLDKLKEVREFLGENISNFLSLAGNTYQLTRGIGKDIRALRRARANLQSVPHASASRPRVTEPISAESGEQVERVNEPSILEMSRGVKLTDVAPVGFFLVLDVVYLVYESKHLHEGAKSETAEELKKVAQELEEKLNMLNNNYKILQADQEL
Experiment: Acute APOL1 Thallium Assay with inducible stable clones of HEK 293 cells
Format: cell-based
Details: HEK 293 T-Rex inducible stable clone expressing G1 APOL1; read-out: Thallium Assay (IC50)
Excerpt: Acute APOL1 Thallium Assay with Inducible Stable Clones of HEK 293 Cells
Apolipoprotein L1 (APOL1) proteins form potassium-permeable cation pores in the plasma membrane. APOL1 risk variants (G1 and G2) induce greater potassium flux than G0 in HEK293 cells. This assay exploits the permeability of thallium (T1+) through ligand-gated potassium channels. The dye produces a bright fluorescent signal upon binding to T1+ conducted through potassium channels. The intensity of the T1+ signal is proportional to the number of potassium channels in the open state. Therefore, it provides a functional indication of the potassium channel activities. During the initial dye-loading step, the T1+ indicator dye as an acetoxymethyl (AM) ester enters the cells through passive diffusion. Cytoplasm esterases cleave the AM ester and relieve its active thallium-sensitive form. The cells are then stimulated with T1+. The increase of fluorescence in the assay represents the influx of T1+ into the cell specifically through the potassium channel (i.e. through APOL1 pores), providing a functional measurement of potassium channel/pore activity. The Thallium assay is conducted with cells expressing G1 APOL1.
APOL1 Cell Line (HEK T-Rex Stable Inducible Cell Line)
• HEK T-Rex System • Tetracycline (Tet) inducible mammalian expression system. • Stably express the Tet repressor to regulate transcription. • Expression under the full-length CMV promoter. • APOL1 stable inducible cell line Clone used: G1 DC3.25 Tissue Culture Media Cell Culture Medium • DMEM+10% FBS+P/S+5 μg/mL blasticidin+1 μg/mL puromycin. • 500 mL DMEM+55 mL FBS+5 mL P/S+280 μL blasticidin S HCl (10 mg/mL)+56 μL puromycin (10 mg/mL). Cell Assay Medium • DMEM with 2% FBS+penicillin streptomycin. Reagents:
Instruments and Equipment • Nuaire cell culture hood, Cat. No. 540-600 • 37° C./5% CO2 incubator link to robotic arm, Liconic: STX110 • Molecular Devices FLIPR^Tetra High throughput cellular screening system, Cat. No. FT0324, Molecular Devices • ThermoFisher MultiDrop 384, Cat. No. 5840300 • Biotek Microfill, Cat. No. ASF1000A-4145 • BioRad TC10 cell counter, Cat. No. 145-0010 Assay Procedures Cells Scaled Up from Frozen Vials • APOL1 G1 3.25 (HEK293 T-Rex) frozen vials: 5 million cells per vial • Step 1, Day 1: Defrost frozen vial into T-225. • Step 2, Day 5: (when 85% confluent): Split one T-225 at 3×10^6 cells per flask. • Step 3, Day 8: Splits cells to set up for the assay plates as described below. Cell Culture
T-Rex APOL1 HEK cells are split twice per week to keep the confluence state below 85% of the culture flask surface area. Cells can be kept until passage 25.
• DMEM high glucose+10% FBS, +P/S, +5 μg/mL blasticidin, +1 μg/mL puromycin. • 500 mL DMEM, +55 mL FBS, +5 mL P/S, +280 μL blasticidin 10 mg/mL, +56 μL Puromycin 10 mg/mL. Assay Media • Opti-MEM reduced serum medium from Invitrogen. Day 1 Preparation of Cell Assay Plates • Culture medium is removed from the x cm^2 T-flask by aspiration. • The cell monolayer is rinsed with PBS 1× at room temperature. PBS is removed by aspiration. • Cells are trypsinized using Trypsin. • The flasks are incubated at room temperature for 2-3 minutes. • Complete DMEM medium is then added. Cell suspension is then transferred to a 50 mL Falcon polypropylene tube. • Cells are then counted using a BioRad TC10 cell counter and the required amount of cells are centrifuged at 1200 RPM for 5 minutes. Required amount is 1.3×10^6 cells/mL APOL1 T-Rex HEK cells. • The pellet is suspended in the assay medium. • Using the MultiDrop, add 20 μL to each well (corresponds to 26000 cells total per well) of a 384-well black, transparent, flat bottom Poly-D coated plate. • Tetracycline as prepared in the following section is added to the cells before plating to induce APOL1 expression. • Plates are left at room temperature for 20 to 30 minutes before incubation at 37° C. and 5% CO2. […]

Compound | pIC50
NC1CC(c2c(-c3ccc(OC(F)(F)F)cc3)[nH]c3c(F)cc(F)cc23)C1 (centres unmarked) [Compound 8, 3-[5,7-difluoro-2-[4-(trifluoromethoxy)phenyl]-1H-indol-3-yl]cyclobutanamine] | 6.00 to 6.60
CN1CCCC(CC(=O)N[C@H]2C[C@@H](c3c(-c4ccc(F)cc4)[nH]c4c(F)cc(F)cc43)C2)C1 (some centres unmarked) [Compound 39] | < 6.00
O=C(CCN1CCCCC1)N[C@H]1C[C@@H](c2c(-c3ccc(F)cc3)[nH]c3c(F)cc(F)cc32)C1 [Compound 61] | < 6.00
NC(=O)C1(C(=O)NC[C@H]2C[C@H](c3c(-c4ccc(F)cc4)[nH]c4c(F)cc(F)cc43)C2)CC1 [Compound 452] | < 6.00
NC(=O)CC(=O)N[C@H]1C[C@H](c2c(-c3ccc(F)cc3)[nH]c3c(F)cc(F)cc32)C1 [Compound 447, N′-[3-[5,7-difluoro-2-(4-fluorophenyl)-1H-indol-3-yl]cyclobutyl]propanediamide] | 6.00 to 6.60
C[C@@H](O)CNCC1CC(c2c(-c3ccc(F)cc3)[nH]c3c(F)cc(F)cc23)C1 (some centres unmarked) [Compound 383] | 6.00 to 6.60
O=C1CCC(NCC2CC(c3c(-c4ccc(F)cc4)[nH]c4c(F)cc(F)cc34)C2)C(=O)N1 (centres unmarked) [Compound 382] | 6.00 to 6.60
NCC1CC(c2c(-c3ccc(F)cc3)[nH]c3c(F)cc(C(F)(F)F)cc23)C1 (centres unmarked) [Compound 178] | 6.00 to 6.60
CC(C)C(CO)NCC1CC(c2c(-c3ccc(F)cc3)[nH]c3c(F)cc(F)cc23)C1 (centres unmarked) [Compound 402] | < 6.00
Cc1cccc(-c2[nH]c3c(F)cc(F)cc3c2C2CC(N)C2)c1 (mixture of isomers) [Compound 5, 3-[5,7-difluoro-2-(m-tolyl)-1H-indol-3-yl]cyclobutanamine] | 6.00 to 6.60
CC1(C(=O)NC[C@H]2C[C@@H](c3c(-c4ccc(F)cc4)[nH]c4c(F)cc(F)cc43)C2)CC(=O)C1 [Compound 284] | < 6.00
CS(=O)(=O)CCCC(=O)N[C@H]1C[C@@H](c2c(-c3ccc(F)cc3)[nH]c3c(F)cc(F)cc32)C1 [Compound 32] | < 6.00
Cc1cc(-c2[nH]c3c(F)cc(F)cc3c2C2CC(CN)C2)ccc1F (centres unmarked) [Compound 179] | > 6.60
O=C(NC[C@H]1C[C@H](c2c(-c3ccc(F)cc3)[nH]c3c(F)cc(F)cc32)C1)c1ccn[nH]c1=O [Compound 312] | < 6.00
CCS(=O)(=O)N[C@H]1C[C@H](c2c(-c3ccc(F)cc3)[nH]c3c(F)cc(F)cc32)C1 [Compound 147] | > 6.60
Cc1cc[nH]c1C(=O)NC1CC(Cc2c(-c3ccc(F)cc3)[nH]c3c(F)cc(F)cc23)C1 (centres unmarked) [Compound 171] | < 6.00
O=C1NCCC1C(=O)N[C@H]1C[C@@H](c2c(-c3ccc(F)cc3)[nH]c3c(F)cc(F)cc32)C1 (some centres unmarked) [Compound 69] | < 6.00
O=C1CC[C@H](C(=O)NC[C@H]2C[C@H](c3c(-c4ccc(F)cc4)[nH]c4c(F)cc(F)cc43)C2)N1 [Compound 268] | < 6.00
O=C(CC1(O)CCCCC1)NC[C@H]1C[C@@H](c2c(-c3ccc(F)cc3)[nH]c3c(F)cc(F)cc32)C1 [Compound 316] | < 6.00
O=C(N[C@H]1C[C@H](c2c(-c3ccc(F)cc3)[nH]c3c(F)cc(F)cc32)C1)C(O)CO (some centres unmarked) [Compound 96] | 6.00 to 6.60
NCCCNCC1CC(c2c(-c3ccc(F)cc3)[nH]c3c(F)cc(F)cc23)C1 (centres unmarked) [Compound 409] | < 6.00
NC(=O)[C@H](CO)NS(=O)(=O)NC[C@H]1C[C@H](c2c(-c3ccc(F)cc3)[nH]c3c(F)cc(F)cc32)C1 [Compound 353] | < 6.00
CN(CC(=O)N[C@H]1C[C@@H](c2c(-c3ccc(F)cc3)[nH]c3c(F)cc(F)cc32)C1)S(C)(=O)=O [Compound 38] | < 6.00
O=C(N[C@H]1C[C@H](c2c(-c3ccc(F)cc3)[nH]c3c(F)cc(F)cc32)C1)C(O)C1CC1 (some centres unmarked) [Compound 92] | 6.00 to 6.60
N#CCC(=O)N[C@H]1C[C@@H](c2c(-c3ccc(F)cc3)[nH]c3c(F)cc(F)cc32)C1 [Compound 67] | < 6.00
CCS(=O)(=O)NCC(=O)N[C@H]1C[C@@H](c2c(-c3ccc(F)cc3)[nH]c3c(F)cc(F)cc32)C1 [Compound 43] | < 6.00
